Laboratory results published in PMC8199339, “Propellanes as Rigid Scaffolds for the Stereodefined Attachment of σ-Pharmacophoric Structural Elements to Achieve σ Affinity” (International Journal of Molecular Sciences, 2021).
Where two headings read alike, the source gives them in different places.

What was measured:
σ1 receptor [1] = target: T1, σ1 receptor (Cavia porcellus, UniProt Q60492); settings: cited from earlier work
T1 construct: thawed membrane preparation of guinea pig brain; tissue Harlan-Winkelmann, Borchen, Germany (animal organs); host or cells: guinea pig brain membrane homogenate

σ2 receptor [2] = target: T2, σ2 receptor (Rattus norvegicus, UniProt Q5U3Y7); settings: cited from earlier work; for inhibition of the radioligand binding, σ2: test compound concentration of 1 µM, already reported, 1 µM
T2 construct: The thawed rat liver membrane preparation; tissue Harlan-Winkelmann, Borchen, Germany (animal organs); host or cells: rat liver membrane homogenate
T2 sequence (Q5U3Y7 1-176): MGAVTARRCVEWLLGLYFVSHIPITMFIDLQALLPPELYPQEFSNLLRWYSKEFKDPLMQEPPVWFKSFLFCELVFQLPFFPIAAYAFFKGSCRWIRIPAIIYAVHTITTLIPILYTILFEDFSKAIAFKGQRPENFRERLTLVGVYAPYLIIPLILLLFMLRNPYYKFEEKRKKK

σ1 receptor [3] = settings: cited from earlier work; for Ki: Figure 2
σ2 receptor [4] = settings: cited from earlier work; for Ki: Figure 2
σ1 receptor [5] = target: T1, σ1 receptor; experiment: σ1 receptor binding assay, radioligand [3H]-(+)-pentazocine, guinea pig brain membrane preparation
σ2 receptor [6] = target: T2, σ2 receptor; experiment: σ2 receptor binding assay, radioligand [3H]di-o-tolylguanidine, rat liver membrane preparation
[7] = azapropellanes 9, already reported

T1 sequence (Q60492 whole entry): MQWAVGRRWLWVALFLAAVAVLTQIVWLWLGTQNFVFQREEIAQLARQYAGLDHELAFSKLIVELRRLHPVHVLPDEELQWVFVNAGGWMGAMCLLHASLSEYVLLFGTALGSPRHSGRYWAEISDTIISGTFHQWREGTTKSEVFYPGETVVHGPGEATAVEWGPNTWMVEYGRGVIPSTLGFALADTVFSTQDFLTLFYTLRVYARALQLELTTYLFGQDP

COc1ccc(C)cc1NC(=O)OC1CC23CCCCC2(C1)CN(Cc1ccccc1)CC3 (stereo not drawn) [syn-5]
inhibition of the radioligand binding, σ1 (σ1 receptor [1]; test compound concentration of 1 µM, already reported): 12% | inhibition of the radioligand binding, σ2 (σ2 receptor [2]): 0%

COc1ccc(C)cc1NC(=O)OC1CC23CCCCC2(C1)CN(Cc1ccccc1)CC3 (stereo not drawn) [anti-5]
Ki (σ1 receptor [1]; propellanamines 4a and azapropellanes 5, already reported): 82 ± 54 nM | inhibition of the radioligand binding, σ2 (σ2 receptor [2]): 8%

COc1ccc(C)cc1NC(=O)OC1CC2CCCC(C1)N2Cc1ccccc1 (stereo not shown) [compound 3]
Ki (σ1 receptor [3]): 92.5 nM | Ki (σ2 receptor [4]): 3.1 nM | preference for the σ2 receptor (σ2 receptor [4]; σ2 over σ1): 30 fold

COc1ccc(CN2CC3CCCC2CN3Cc2ccccc2)cc1 (stereo not shown) [compound 2]
Ki (σ1 receptor [3]): 0.91 nM | selectivity for σ1 against/over the σ2 subtype (σ1 receptor [3]): more than 40 fold | Ki (σ2 receptor [4]): 39 nM

FCC[C@@H]1OC2(CCN(Cc3ccccc3)CC2)c2ccccc21 [compound 1, (S)-fluspidine]
Ki (σ1 receptor [3]): 2.3 nM | selectivity for σ1 against/over the σ2 subtype (σ1 receptor [3]): 300 fold | Ki (σ2 receptor [4]): 897 nM

c1ccc(CN2CC34CCCCC3(CCC4)C2)cc1 (stereo not shown) [9a]
selectivity for the σ1 receptor over the σ2 receptor (σ1 receptor [5]; σ1 over σ2): at least 10 fold | Ki (σ1 receptor [1]; [7]): 17 ± 12 nM | Ki (σ2 receptor [2]; [7]): 190 nM

c1ccc2c(CCNC3CC45CCCCC4(CCC5)C3)c[nH]c2c1 (stereo not drawn) [compound 15, syn- and anti-N-[2-(Indol-3-yl)ethyl]-[4.3.3]propellan-8-amine]
Ki (σ1 receptor [5]; Ki (nM) σ1): 598 nM | Ki (σ2 receptor [6]): 974 nM | melting point: 109 to 111 °C
